Test results published in US20200030284A1, “MEDICAL USE OF ARTEMISININ DERIVATIVE FOR TREATING INFLAMMATORY BOWEL DISEASE” (SHANGHAI INSTITUTE OF MATERIA MEDICA,CHINESE ACADEMY OF …, priority 2017, published 2020).
Where a name gives a salt, the structure may show the parent alone.

Key:
Format in all cases: in vivo, Balb/c mice
[1] = test system: macrophages and neutrophils in mesenteric lymph nodes and spleen of DSS-induced colitis mice; experiment: Inflammatory cell detection by flow cytometry in mesenteric lymph nodes and spleen; settings: 10 mg/kg intragastric, FIG. 3A and 3B
Procedure: FIG. 3 is graphs showing the results of flow cytometry analysis, in which a single cell suspension was prepared from mesenteric lymph nodes and spleen of mice in various groups taken out at the end of the experiment, and the cells were labeled with the corresponding fluorescent antibody. FIG. 3A is for the isolated mesenteric lymph node cells, and FIG. 3B is for the isolated spleen lymphocytes, they were stained withanti-F4/80 antibody+anti-CD11b antibody (double positive cells were recognized as macrophages), and with anti-Gr-1 antibody+anti-CD11 b antibody (double positive cells were identified as neutrophils) respectively.
(§1) 1. Mice were randomly divided into a normal control group, a model group, a cyclosporin A (CsA) (20 mg/kg) treatment group, a 5-aminosalicylic acid (5-ASA) (50 mg/kg) treatment group, and the artemisinin derivative having anti-inflammatory immunosuppressive activity SM934, SM905, SM933 and SM735 (10 mg/kg each) treatment groups, with 8 mice per group. Except for the mice in the normal control group, for the mice in the other groups including the model group, the cyclosporine A treatment group, the 5-aminosalicylic acid treatment group, and the 4 artemisinin derivative treatment groups, 5% DSS was added to the drinking water for 7 consecutive days for induction of the intestinal inflammation model.
2. […]

[2] = test system: CD11b+ monocytes in colon tissue of DSS-induced colitis mice; experiment: Inflammatory cell detection in colon cryosections by fluorescence confocal microscopy; settings: middle segment of colon, 10 mg/kg intragastric, FIG. 4
Procedure: FIG. 4 is photographs showing the photographing and analyzing results under fluorescence confocal microscopy in which, after the middle segments of colons of mice in various groups were cryosectioned, the nucleus were stained with DAPI fluorescent antibody, and the mononuclear lymphocytes were stained with anti-CD11b antibody.
as §1
2. […]
2. The middle segment of the colon was cryosectioned, stained with the corresponding fluorescent antibody, photographed under a fluorescence confocal microscope and analyzed.

[3] = test system: pro-inflammatory cytokines in colon tissue of DSS-induced colitis mice; experiment: Detection of pro-inflammatory cytokine levels in colon tissue by ELISA; settings: colon homogenate, per unit of total protein, 10 mg/kg intragastric, FIG. 5
Procedure: as §1
2. From the start of the induction to the end of the experiment, mice in the various treatment groups were given cyclosporine A, 5-aminosalicylic acid 5-ASA or4 artemisinin derivatives (10 mg/kg) respectively by intragastric administration to conduct a therapeutic intervention.
[IV] Detection of Pro-Inflammatory Cytokine Levels in Colon Tissue
1. […] After centrifugation, the protein concentration in the homogenate supernatant was quantified with a BCA kit.
2. ELISA was used to detect the content of pro-inflammatory cytokine in the supernatant, which was expressed as the content of cytokine per unit of total protein.

C[C@@H]1CCC2[C@@H](C)[C@@H](OCCN)O[C@H]3O[C@@]4(C)CCC1[C@@]23OO4 (stereo partly drawn) [SM934, β-aminoarteether maleate]
reduced: proportion of macrophages (F4/80+ and CD11b+ double positive cells) [1] | proportion of neutrophils (Gr-1+ and CD11b+ double positive cells) [1] | infiltration of monocytes (CD11b+ cells) in colon tissue [2] | levels of pro-inflammatory cytokines in colon tissue [3]
